Measured values: US10273266B2, “Multi-functional peptide benefiting expression, purification, stabilization and catalytic efficiency of recombinant proteins” (priority 2017, dated 2019)

What was measured:
Assay type in all cases: biochemical
[1] = target: Pseudomonas aeruginosa BBE lipoxygenase (LOX, EC 1.13.11.12), wild-type, gene SEQ ID NO.6 (Pseudomonas aeruginosa, UniProt Q9I4G8); assay: Lipoxygenase kinetics with linoleic acid, wild-type LOX; conditions: pH 7.5, 25° C., Value ± SD
Excerpt: (§1) The nucleotide sequence of PGL gene from Bacillus subtilis WSHB04-02 is shown as SEQ ID NO.4. The nucleotide sequence of LOX gene from Pseudomonas aeruginosa BBE is shown as SEQ ID NO.6. The nucleotide sequence of GFP gene from Aequorea victoria is shown as SEQ ID NO.8. E. coli JM109 was used as the host strain for cloning. E. coli BL21 (DE3) and E. coli Rosetta (DE3) were used as the expression hosts. The pET-22b (+) plasmid was used for expressing the recombinant proteins.
(§2) Linoleic acid was dispersed in 0.15 M K2HPO4—KH2PO4 buffer (pH 7.5). The substrate solution was freshly prepared daily and saturated with oxygen for 5 min before testing. Standard analytical mixture (3 mL) contains 0.3 mM linoleic acid and about 1.67 μg/mL enzyme. One unit of activity was defined as enzyme required to synthesis 1 μmol hydroperoxide per min at 25° C. Hydroperoxidaton was determined at 234 nm in a spectrophotometer (UV-2450; Shimadzu Co., Kyoto, Japan). The initial linear part of the wave was used to calculate enzyme activity.

[2] = target: Pseudomonas aeruginosa BBE lipoxygenase LOX-His (His-tag HHHHHH fusion), gene SEQ ID NO.6 (Pseudomonas aeruginosa, UniProt Q9I4G8); assay: Lipoxygenase kinetics with linoleic acid, LOX-His; conditions: pH 7.5, 25° C., Value ± SD
Excerpt: (§3) FIG. 1. (A) Genetic constructs of the His-tag fusion proteins; (B) Genetic constructs of the S1v1 fusion proteins. S1v1, AEAEAHAHAEAEAHAH; linker, PTPPTTPTPPTTPTPT; His-tag, HHHHHH; Enzymes represented the encoding gene of three proteins (pgl, lox and gfp, respectively) used in this study.
as §1, §2

[3] = target: Pseudomonas aeruginosa BBE lipoxygenase LOX-S1v1 (fused to self-assembling amphipathic peptide S1v1, […], SEQ ID NO.1), LOX gene SEQ ID NO.6 (Pseudomonas aeruginosa, UniProt Q9I4G8); assay: Lipoxygenase kinetics with linoleic acid, LOX-S1v1
Excerpt: as §3, §1, §2
(2) The LOX gene (shown in SEQ ID NO. 6) was cloned into the recombinant vector pET-22b(+)/S1v1 at the restriction NcoI and XhoI sites to construct a recombinant plasmid pET-22b(+)/lox-S1v1.

[4] = increase of LOX-S1v1 than that of the wild-type LOX
[5] = linoleic acid, LOX-S1v1, pH 7.5, 25° C., Value ± SD

Chain of Pseudomonas aeruginosa BBE lipoxygenase LOX-S1v1 (fused to self-assembling amphipathic peptide S1v1, […], SEQ ID NO.1), LOX gene SEQ ID NO.6 (Q9I4G8 20-685, added parts left off): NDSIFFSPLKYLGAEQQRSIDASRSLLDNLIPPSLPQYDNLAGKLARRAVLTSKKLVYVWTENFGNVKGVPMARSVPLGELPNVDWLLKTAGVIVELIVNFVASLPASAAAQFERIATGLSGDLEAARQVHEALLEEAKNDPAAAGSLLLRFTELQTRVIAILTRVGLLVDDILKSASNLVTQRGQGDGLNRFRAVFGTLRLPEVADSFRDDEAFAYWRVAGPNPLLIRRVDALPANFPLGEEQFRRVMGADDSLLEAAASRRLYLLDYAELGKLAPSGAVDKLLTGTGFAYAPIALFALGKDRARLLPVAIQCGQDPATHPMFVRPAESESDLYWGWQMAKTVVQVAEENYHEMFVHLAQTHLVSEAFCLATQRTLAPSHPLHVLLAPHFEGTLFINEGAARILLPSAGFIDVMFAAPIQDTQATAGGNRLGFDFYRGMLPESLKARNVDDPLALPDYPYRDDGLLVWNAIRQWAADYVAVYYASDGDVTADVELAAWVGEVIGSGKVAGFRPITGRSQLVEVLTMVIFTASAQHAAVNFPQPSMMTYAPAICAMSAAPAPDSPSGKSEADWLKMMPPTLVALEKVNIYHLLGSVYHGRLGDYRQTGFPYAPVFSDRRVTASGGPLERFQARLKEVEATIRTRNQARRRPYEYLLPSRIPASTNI
Chain of Pseudomonas aeruginosa BBE lipoxygenase (LOX, EC 1.13.11.12), wild-type, gene SEQ ID NO.6 (Q9I4G8 19-685, looked up, natural form): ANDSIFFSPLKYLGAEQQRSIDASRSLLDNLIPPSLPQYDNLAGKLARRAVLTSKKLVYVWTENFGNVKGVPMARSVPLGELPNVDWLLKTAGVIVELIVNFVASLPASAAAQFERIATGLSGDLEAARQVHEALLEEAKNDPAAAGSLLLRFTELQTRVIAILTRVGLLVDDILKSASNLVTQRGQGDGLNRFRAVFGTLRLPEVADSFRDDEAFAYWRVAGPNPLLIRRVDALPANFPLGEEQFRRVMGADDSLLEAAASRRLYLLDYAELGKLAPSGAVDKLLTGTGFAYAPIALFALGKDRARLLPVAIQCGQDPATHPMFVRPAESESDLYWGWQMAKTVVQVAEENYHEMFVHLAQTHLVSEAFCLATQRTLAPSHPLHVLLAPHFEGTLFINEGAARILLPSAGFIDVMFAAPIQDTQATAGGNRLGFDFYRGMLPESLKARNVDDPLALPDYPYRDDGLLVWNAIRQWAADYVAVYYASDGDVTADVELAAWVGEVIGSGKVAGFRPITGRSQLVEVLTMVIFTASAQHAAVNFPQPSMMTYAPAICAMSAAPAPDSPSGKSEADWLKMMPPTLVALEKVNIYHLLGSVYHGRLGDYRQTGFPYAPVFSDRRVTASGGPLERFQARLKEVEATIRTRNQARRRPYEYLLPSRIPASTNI
Chain of Pseudomonas aeruginosa BBE lipoxygenase LOX-His (His-tag HHHHHH fusion), gene SEQ ID NO.6 (Q9I4G8 19-685, looked up, natural form): as above

## CCCCC/C=C\C/C=C\CCCCCCCC(=O)O [linoleic acid, Linoleic acid]
[1]
  Km: 57 ± 1.2 µM
  kcat: 24.77 ± 0.97 S^−1
[2]
  Km: 55 ± 2 µM
  kcat: 25.21 ± 1.02 S^−1
[3]; fusion enzymes compared with wild-types, decrease in substrate affinity after S1v1 peptide fusion
  Km value (in words): higher Km value
[3]; [4]
  catalytic efficiencies (kcat/Km) increase: 1.3 fold
  kcat value increase: 2.4 fold
[3]; [5]
  Km: 83 ± 2 µM
  kcat: 83.2 ± 3.25 S^−1
